Measured values as given in article PMC9238271, “The quorum sensing peptide EntF* promotes colorectal cancer metastasis in mice: a new factor in the host-microbiome interaction” (BMC Biology, 2022).
Several values for one entry are separate records, joined by “and”; a condition that tells them apart may be missing. Equal values may be shown once.

Columns and labels:
[1] = In vitro metabolization of EntF: formation of EntF* in colon tissue homogenate; format: in vitro ADME, C57BL/6 female mice
Method: Krebs-Henseleit (KH) buffer (Sigma-Aldrich, Belgium) was prepared by dissolving the powdered medium in 900 mL water while stirring. Once the powder was completely dissolved, 0.3790 g CaCl2•2H2O and 2.098 g NaHCO3 were added to the solution. NaOH or HCl was used to adjust the pH to 7.4. The solution was brought to final volume (1000 mL) with ultrapure water.
For the preparation of colon tissue homogenates for EntF in vitro metabolization study, colons were collected from two untreated C57BL/6 female mice after cervical dislocation. After cleaning and rinsing the organs with ice-cold KH buffer, colons were cut into small pieces and transferred into 15 mL tubes containing 5 mL ice-cold KH buffer. Colon tissues were homogenized for 1 min. Larger particles were allowed to sediment for about 30 min at 5 °C, and then approximately 2 mL of the middle layer of each tube was transferred into a 2 mL Eppendorf tube and stored at − 35 °C. Before use, the homogenate was diluted to a final protein concentration of 0.6 mg/mL.
(§1) To avoid the absorption of EntF* onto plasticware and glassware, all tubes and containers were coated with a BSA-based anti-adsorption solution before use.
Five hundred microliters of tissue homogenate were mixed with 400 μL of pre-warmed KH buffer. Then, 100 μL of KH buffer (blank) or 1 mg/mL EntF peptide solution (test) were added to the diluted homogenate and incubated at 37 °C. […] After centrifugation at 16,000g for 30 min at 5 °C, supernatants were analyzed by LC1-MS1 for EntF* quantification.
(§2) EntF* was detected and quantified on a Waters Acquity® UPLC H-class system, connected to a Waters Xevo™ TQ-S triple quadrupole mass spectrometer with electrospray ionization (operated in positive ionization mode). Autosampler tray and column oven were kept at 10 ± 5 °C and 60 ± 5 °C, respectively. Chromatographic separation was achieved on a Waters Acquity® UPLC BEH Peptide C18 column (300 Å, 1.7 μm, 2.1 mm × 100 mm). The mobile phases consisted of 93/2/5 water/acetonitrile/DMSO (V/V/V) containing 0.1% formic acid (mobile phase A) and 2/93/5 water/acetonitrile/DMSO (V/V/V) containing 0.1% formic acid (mobile phase B), and the flow rate was set to 0.5 mL/min. A 10-μL aliquot from each sample was injected. The gradient program started with 80% of mobile phase A for 1 min, followed by a linear gradient to 40% of mobile phase A for 3.5 min. Gradient was then changed to 14.2% mobile phase A at 5 min, followed by a 1 min equilibration, before starting conditions were applied. EntF* retention time was between 4.25 and 4.45 min.
An optimized capillary voltage of 3.00 kV, a cone voltage of 20.00 V, and a source offset of 50.0 V were used. Acquisition was done in the MRM mode. The selected precursor ion for EntF* was m/z 865.7 with two selected product ions at m/z 202.08 (36 eV, b2 fragment) as quantifier and m/z 315.17 (31 eV, b3 fragment) as qualifier.

[2] = Caco-2 monolayer permeability assay; format: in vitro ADME; settings: Caco-2 Transwell A -> B, 1 µM EntF* apical, HBSS, LC1-MS1; average of AB1-AB6; read-out: Kapp, average
Method: as §1
(§3) HCT-8, HT-29, and HT-116 cells were grown in DMEM medium supplied with 10% fetal bovine serum (FBS) and 1% penicillin-streptomycin. Caco-2 cells were grown in DMEM medium supplied with 10% FBS, 1% non-essential amino acid NEAA), and 1% penicillin-streptomycin. Cells were cultured at 37 °C and 5% CO2. As cells reached confluency, they were detached using 0.25% Trypsin-EDTA.
(§4) Caco-2 cells were seeded on Transwell polycarbonate membrane filters (0.4 μm pore size, Corning, Germany) at a density of 2.6 × 10^5 cells/cm^2 and permeability tests performed as described by Hubatsch et al.. Cells were submerged with Hank’s balanced salt solution (HBSS), and transepithelial electrical resistance (TEER) was measured before and after the experiment. Peptide solution (1 μM) was added to the apical chamber, and 300 μL aliquots were taken after 30, 60, 90, and 120 min of incubation. Samples were analyzed using LC1-MS1. Linear curve fitting was used to calculate the apparent permeability coefficient (Papp).
as §2

[3] = test system: Caco-2 monolayer; assay: Caco-2 monolayer permeability assay; format: in vitro ADME; settings: for Kapp / Cumulative conc / Cumulative amount / Mean cumulative amount / Mean cumulative concentration / % Dose applied / Conc in receiver compartment: Caco-2 Transwell A -> B; for Kapp / Cumulative conc / Cumulative amount / Mean cumulative amount / Mean cumulative concentration: 1 µM EntF* apical; for Kapp / Conc in receiver compartment: LC1-MS1; for Cumulative conc / Cumulative amount / % Dose applied / Conc in receiver compartment: individual replicates A -> B (1)-(6); for Mean cumulative amount / Mean cumulative concentration: mean of n = 6; for % Dose applied: amount applied 0.4 nmol; for Conc in receiver compartment: dose solution 1 µM EntF* (0.4 nmol applied), cell vol 1.200 ml
Method: as §1, §3, §4, §2

[4] = Colon, Time 0, initial concentration EntF 31.82 µM
[5] = Colon, Time 1, initial concentration EntF 31.82 µM
[6] = Colon, Time 5, initial concentration EntF 31.82 µM
[7] = Colon, Time 10, initial concentration EntF 31.82 µM
[8] = Colon, Time 30, initial concentration EntF 31.82 µM
[9] = Colon, Time 60, initial concentration EntF 31.82 µM
[10] = Colon, Time 120, initial concentration EntF 31.82 µM
[11] = Colon, Time 180, initial concentration EntF 31.82 µM

CC(C)C[C@@H]1NC(=O)[C@H](CO)NC(=O)[C@H](Cc2ccccc2)NC(=O)[C@H](C(C)C)NC(=O)[C@@H](NC(=O)[C@H](CCC(=O)O)NC(=O)[C@@H](NC(=O)[C@H](CC(C)C)NC(=O)[C@H](CC(N)=O)NC(=O)[C@@H](N)CO)C(C)C)CSSC[C@@H](C(=O)N[C@@H](CC(N)=O)C(=O)O)NC(=O)[C@H](CCCCN)NC(=O)[C@H](CCCCN)NC(=O)[C@H](Cc2ccccc2)NC1=O (single isomer, unassigned) [EntF*]
Stability of EntF* in Colon tissue ([1]; Colon tissue): EntF* is stable in Colon tissue
EntF* Conc [1, 4]: 0.00 µM
EntF* without metabolisation, Conc [1, 4]: 0.00 µM
EntF*/EntF % [1, 4]: 0.00%
EntF* Conc [1, 5]: 0.0286 µM
EntF*/EntF % [1, 5]: 0.09%
EntF* Conc [1, 6]: 0.20 µM
EntF*/EntF % [1, 6]: 0.62%
EntF* Conc [1, 7]: 0.50 µM
EntF*/EntF % [1, 7]: 1.56%
EntF* Conc [1, 8]: 0.94 µM
EntF*/EntF % [1, 8]: 2.94%
EntF* Conc [1, 9]: 2.03 µM
EntF*/EntF % [1, 9]: 6.39%
EntF* Conc [1, 10]: 3.15 µM
EntF*/EntF % [1, 10]: 9.89%
EntF* Conc [1, 11]: 5.17 µM
EntF*/EntF % [1, 11]: 16.25%
formation rate of EntF* (from EntF) in colonic tissues ([1]; mouse colon tissue homogenate (0.6 mg/mL protein) 500 μL + 400 μL Krebs-Henseleit buffer pH 7.4 + 100 μL 1 mg/mL EntF, 37 °C, aliquots 0-180 min, LC1-MS1, mean ± SEM, n = 7): 0.11 ± 0.01 % min^−1
Formation rate, Colon tissue, Average ([1]; mouse colon tissue homogenate, Krebs-Henseleit buffer pH 7.4, 37 °C, LC1-MS1, average of X1-X7): 0.11 %*min-1
Formation rate, Colon tissue ([1]; mouse colon tissue homogenate, Krebs-Henseleit buffer pH 7.4, 37 °C, LC1-MS1, replicate X1): 0.0898 %*min-1
Formation rate, Colon tissue ([1]; mouse colon tissue homogenate, Krebs-Henseleit buffer pH 7.4, 37 °C, LC1-MS1, replicate X2): 0.1249 %*min-1
Formation rate, Colon tissue ([1]; mouse colon tissue homogenate, Krebs-Henseleit buffer pH 7.4, 37 °C, LC1-MS1, replicate X3): 0.1563 %*min-1
Formation rate, Colon tissue ([1]; mouse colon tissue homogenate, Krebs-Henseleit buffer pH 7.4, 37 °C, LC1-MS1, replicate X4): 0.0981 %*min-1
Formation rate, Colon tissue ([1]; mouse colon tissue homogenate, Krebs-Henseleit buffer pH 7.4, 37 °C, LC1-MS1, replicate X5): 0.1065 %*min-1
Formation rate, Colon tissue ([1]; mouse colon tissue homogenate, Krebs-Henseleit buffer pH 7.4, 37 °C, LC1-MS1, replicate X6): 0.0824 %*min-1
Formation rate, Colon tissue ([1]; mouse colon tissue homogenate, Krebs-Henseleit buffer pH 7.4, 37 °C, LC1-MS1, replicate X7): 0.0903 %*min-1
Papp A→B [2]: 0.00367 ×10⁻⁶ cm/s
Kapp ([3]; HBSS, replicate AB1): 2.13e-07 cm/min
Kapp ([3]; HBSS, replicate AB2): 1.88e-07 cm/min
Kapp ([3]; HBSS, replicate AB3): 2.21e-07 cm/min
Kapp ([3]; HBSS, replicate AB4): 2.07e-07 cm/min
Kapp ([3]; HBSS, replicate AB5): 2.81e-07 cm/min
Kapp ([3]; HBSS, replicate AB6): 2.12e-07 cm/min
Cumulative conc ([3]; HBSS, time 30 min): 43.732 pM and 39.850 pM and 48.195 pM and 54.684 pM and 29.485 pM and 29.005 pM
Cumulative amount ([3]; HBSS, time 60 min): 30.299 amol and 45.664 amol and 39.602 amol and 52.014 amol and 67.922 amol and 37.955 amol
Cumulative conc ([3]; HBSS, time 60 min): 25.249 pM and 38.053 pM and 33.002 pM and 43.345 pM and 56.602 pM and 31.630 pM
Cumulative amount ([3]; HBSS, time 90 min): 46.426 amol and 46.765 amol and 42.758 amol and 52.183 amol and 67.818 amol and 43.254 amol
Cumulative conc ([3]; HBSS, time 90 min): 38.688 pM and 38.971 pM and 35.631 pM and 43.485 pM and 56.515 pM and 36.045 pM
Cumulative amount ([3]; HBSS, time 120 min): 37.088 amol and 40.742 amol and 47.116 amol and 44.500 amol and 55.592 amol and 38.733 amol
Cumulative conc ([3]; HBSS, time 120 min): 30.906 pM and 33.952 pM and 39.263 pM and 37.084 pM and 46.326 pM and 32.277 pM
Mean cumulative amount ([3]; time 30 min): 48.990 amol
Mean cumulative concentration ([3]; time 30 min): 40.825 pM
Mean cumulative amount ([3]; time 60 min): 45.576 amol
Mean cumulative concentration ([3]; time 60 min): 37.980 pM
Mean cumulative amount ([3]; time 90 min): 49.867 amol
Mean cumulative concentration ([3]; time 90 min): 41.556 pM
Mean cumulative amount ([3]; time 120 min): 43.962 amol
Mean cumulative concentration ([3]; time 120 min): 36.635 pM
% Dose applied ([3]; time 30 min): 13.120% and 11.955% and 14.459% and 16.405% and 8.846%
% Dose applied ([3]; time 60 min): 7.575% and 11.416% and 9.901% and 13.004% and 16.980% and 9.489%
% Dose applied ([3]; time 90 min): 11.606% and 11.691% and 10.689% and 13.046% and 16.954% and 10.813%
% Dose applied ([3]; time 120 min): 9.272% and 10.185% and 11.779% and 11.125% and 13.898% and 9.683%
Conc in receiver compartment ([3]; HBSS, time 0 min): 0.0217667 nM and 0.0386367 nM and 0.0252731 nM and 0.06096 nM and 0.0351635 nM and 0.0240173 nM
Conc in receiver compartment ([3]; HBSS, time 30 min): 0.0382904 nM and 0.0301911 nM and 0.0418772 nM and 0.0394437 nM and 0.0206944 nM and 0.0230007 nM
Conc in receiver compartment ([3]; HBSS, time 60 min): 0.0134944 nM and 0.0230389 nM and 0.015795 nM and 0.0265575 nM and 0.0315007 nM and 0.0176651 nM
Conc in receiver compartment ([3]; HBSS, time 90 min): 0.02356 nM and 0.0181966 nM and 0.0144756 nM and 0.0200585 nM and 0.0235388 nM and 0.017664 nM
Conc in receiver compartment ([3]; HBSS, time 120 min): 0.009888 nM and 0.0086284 nM and 0.0144888 nM and 0.008642 nM and 0.007466 nM and 0.009481 nM
apparent permeability coefficient (Papp) ([3]; Caco-2 monolayer on Transwell polycarbonate filters (0.4 μm), apical to basolateral, HBSS, 1 μM peptide in apical chamber, aliquots 30, 60, 90, 120 min, LC1-MS1, linear curve fitting, mean ± SEM, n = 6): 3.67 ± 0.22 × 10^−9 cm s^−1
